Assay results published in ChEMBL document CHEMBL4483862, “Open-source discovery of chemical leads for next-generation chemoprotective antimalarials” (2018).

Tested on: Plasmodium berghei
Assay: Luciferase/luciferin-expressing antifolate-resistant parasites were used to infect a culture of HepG2 cells that were pre-incubated with compounds. Infected hepatocytes emit light due to the luciferase reaction. Assay results are presented as the percent inhibition of light emission compared to control. […]
Assay type: functional
Settings: sporozoite; for IC90: read-out: LUCIFERASE INFECTION ASSAY - IC90
[1] = read-out: LUCIFERASE INFECTION ASSAY - IC50

Work on `CCc1sc(C(=O)Nc2ccc(F)c(Cl)c2)cc1C` yielded an IC50 (PBLUC_HILL_SLOPE 228, PBLUC_R_SQUARED 0.104, read-out: LUCIFERASE INFECTION ASSAY - IC50) of 8.49 µM and an IC90 of 8.57 µM.
`C=C1N(C)c2ccc(NC(=O)c3ccccc3)cc2C1(C)C` showed an IC50 (FFLUC_HILL_SLOPE 13, FFLUC_R_SQUARED 0.522, HEPG2TOX_HILL_SLOPE 2.51, HEPG2TOX_R_SQUARED 0.97, PBLUC_HILL_SLOPE 14.6, PBLUC_R_SQUARED 0.431, read-out: LUCIFERASE INFECTION ASSAY - IC50) of 2.98 µM and an IC90 of 3.46 µM.
For `COc1ccc(-c2nc(C(=O)N3c4ccccc4CC3C)cs2)cc1OC` (stereo not drawn), the IC50 (HEPG2TOX_HILL_SLOPE 1.77, HEPG2TOX_R_SQUARED 0.837, PBLUC_HILL_SLOPE 1.16, PBLUC_R_SQUARED 0.492, read-out: LUCIFERASE INFECTION ASSAY - IC50) was 1.9 µM and the IC90 was greater than 10 µM.
Compound `Cc1cc(NC(=O)N2CCN(Cc3cccc4ccccc34)CC2)no1` has an IC50 (PBLUC_HILL_SLOPE 2.02, PBLUC_R_SQUARED 0.015, read-out: LUCIFERASE INFECTION ASSAY - IC50) greater than 10 µM and an IC90 greater than 10 µM.
With `Cc1ccc(-c2nn(-c3ccccc3)cc2/C=C/C(=O)NCc2ccc(-n3ccnc3)nc2)cc1` the IC50 (PBLUC_HILL_SLOPE 2.1, PBLUC_R_SQUARED 0.668, read-out: LUCIFERASE INFECTION ASSAY - IC50) was 5.12 µM and the IC90 was greater than 10 µM.
`COc1cc(/C=C/C(=O)OC(C(=O)c2c[nH]c3ccccc23)c2ccccc2)cc(OC)c1OC` (stereo not drawn) showed an IC50 [1] greater than 10 µM and an IC90 greater than 10 µM.
For `O=C(c1ccco1)N1CCN(c2ncnc3c2[nH]c2ccc(F)cc23)CC1`, the IC50 (HEPG2TOX_HILL_SLOPE 1.18, HEPG2TOX_R_SQUARED 0.668, PBLUC_HILL_SLOPE 1.45, PBLUC_R_SQUARED 0.295, read-out: LUCIFERASE INFECTION ASSAY - IC50) was greater than 9.03 µM and the IC90 was greater than 9.03 µM.
In the case of `O=C(Nc1cccc(Cl)c1)c1csc(C(O)C2CCCCC2)n1` (stereo not drawn), the IC50 [1] is reported as greater than 10 µM and the IC90 is reported as greater than 10 µM.
`Cc1ccc(OCc2nc(C(=O)Nc3cccc(S(=O)(=O)NC(C)(C)C)c3)cs2)cc1` was tested, and the IC50 [1] was greater than 10 µM and the IC90 was greater than 10 µM.
Work on `O=C(COc1ccc2c3c(c(=O)oc2c1)CCC3)Nc1nc(-c2ccccn2)cs1` yielded an IC50 (HEPG2TOX_HILL_SLOPE 8.22, HEPG2TOX_R_SQUARED 0.725, PBLUC_HILL_SLOPE 12.7, PBLUC_R_SQUARED 0.0522, read-out: LUCIFERASE INFECTION ASSAY - IC50) of 9.13 µM and an IC90 greater than 10 µM.
For `CN(Cc1ccc(Cl)s1)C(=O)Cn1ncc(Br)c(Br)c1=O`, the IC50 (HEPG2TOX_HILL_SLOPE 8.71, HEPG2TOX_R_SQUARED 0.0596, PBLUC_HILL_SLOPE 2.5, PBLUC_R_SQUARED 0.642, read-out: LUCIFERASE INFECTION ASSAY - IC50) was 3.61 µM and the IC90 was 8.7 µM.
`CCC(C)c1ccc(-n2c(=O)c3ccccc3n3c(SCCc4ccncc4)nnc23)cc1` (stereo not drawn) gave an IC50 (PBLUC_HILL_SLOPE 14.1, 1.41, PBLUC_R_SQUARED 0.703, 0.467, read-out: LUCIFERASE INFECTION ASSAY - IC50) of 5.1 µM and an IC90 of 9.16 µM.
`CCOC(=O)c1c(C)[nH]c(C(=O)CSc2nnc(C3COc4ccccc4O3)n2-c2ccccc2)c1C` (stereo not drawn) was tested, and the IC50 [1] was greater than 10 µM and the IC90 was greater than 10 µM.
`CC(C)c1ccc(N/N=C/c2cc(C#Cc3ccccc3)cs2)cc1` showed an IC50 [1] greater than 9.58 µM and an IC90 greater than 9.58 µM.
Compound `COC(OC)c1ccc(C#N)c(SCC(=O)c2ccc(Cl)cc2)n1` has an IC50 [1] greater than 9.1 µM and an IC90 greater than 9.1 µM.
`O=c1nc2n(c3ccccc13)CC/C2=C\c1ccc(Cl)cc1` gave an IC50 [1] greater than 10.7 µM and an IC90 greater than 10.7 µM.
Work on `Cc1ccc(C)n1-c1nc2cc(C(=O)NC3CC3)ccc2s1` yielded an IC50 (PBLUC_HILL_SLOPE 2.39, PBLUC_R_SQUARED 0.619, read-out: LUCIFERASE INFECTION ASSAY - IC50) of 2.93 µM and an IC90 of 7.33 µM.
In the case of `O=C(NNc1cccc(F)n1)C(F)(F)F`, the IC50 (PBLUC_HILL_SLOPE 2.9, PBLUC_R_SQUARED 0.705, read-out: LUCIFERASE INFECTION ASSAY - IC50) is reported as 0.174 µM and the IC90 is reported as 0.37 µM.
With `O=C(O)COc1cc(-c2ccccc2)nc2ccccc12` the IC50 (HEPG2TOX_HILL_SLOPE 2.22, HEPG2TOX_R_SQUARED 0.747, PBLUC_HILL_SLOPE 12.7, PBLUC_R_SQUARED 0.342, read-out: LUCIFERASE INFECTION ASSAY - IC50) was 3.81 µM and the IC90 was 4.53 µM.
With `COc1ccc2cc(C(C)C(=O)N3CCN(S(=O)(=O)/C=C/c4ccccc4)CC3)ccc2c1` (stereo not drawn) the IC50 [1] was greater than 10 µM and the IC90 was greater than 10 µM.
Work on `O=C1C2=C(Nc3ccccc3SC2c2ccccc2F)c2ccccc21` (stereo not drawn) yielded an IC50 (PBLUC_HILL_SLOPE 1.25, PBLUC_R_SQUARED 0.725, read-out: LUCIFERASE INFECTION ASSAY - IC50) of 0.454 µM and an IC90 of 2.61 µM.
For `O=S(=O)(Nc1ccc(C(F)(F)F)cc1)c1ccc(S(=O)(=O)c2ncc(C(F)(F)F)cc2Cl)s1`, the IC50 (FFLUC_HILL_SLOPE 15.7, FFLUC_R_SQUARED 0.198, HEPG2TOX_HILL_SLOPE 0.681, HEPG2TOX_R_SQUARED 0.155, read-out: LUCIFERASE INFECTION ASSAY - IC50) was greater than 5.99 µM and the IC90 was greater than 5.99 µM.
Compound `c1ccc2c(C3=NN=C(NC4CCCCC4)SC3)c[nH]c2c1` has an IC50 [1] greater than 10 µM and an IC90 greater than 10 µM.
In the case of `CCC1CCCCN1CC(=O)Nc1cc(C)nn1-c1nc(C)cc(C)n1` (stereo not drawn), the IC50 (HEPG2TOX_HILL_SLOPE 4.29, HEPG2TOX_R_SQUARED 0.929, read-out: LUCIFERASE INFECTION ASSAY - IC50) is reported as greater than 10 µM and the IC90 is reported as greater than 10 µM.
In the case of `CSc1ccc(N2CC(C(=O)N(C)C(C)c3cccc([N+](=O)[O-])c3)CC2=O)cc1` (stereo not drawn), the IC50 [1] is reported as greater than 10 µM and the IC90 is reported as greater than 10 µM.
In the case of `COC(=O)c1occc1CSc1nc2ccc(Br)cc2c(=O)n1-c1ccccc1`, the IC50 (PBLUC_HILL_SLOPE 130, PBLUC_R_SQUARED 0.0623, read-out: LUCIFERASE INFECTION ASSAY - IC50) is reported as 10 µM and the IC90 is reported as greater than 10 µM.
`O=C(NCCSCc1csc2ccc(Cl)cc12)Nc1ccc(Cl)cc1` showed an IC50 [1] greater than 8.02 µM and an IC90 greater than 8.02 µM.
For `COc1ccc(CC(=O)N2CCN(C)c3nc4ccccc4nc32)cc1F`, the IC50 (HEPG2TOX_HILL_SLOPE 1.64, HEPG2TOX_R_SQUARED 0.943, PBLUC_HILL_SLOPE 1.87, PBLUC_R_SQUARED 0.437, read-out: LUCIFERASE INFECTION ASSAY - IC50) was 2.96 µM and the IC90 was 9.57 µM.
`CCCCN1C(=O)C(=O)N(CC(=O)Nc2sc(Cc3ccc4c(c3)OCO4)c(C)c2C(=O)OCC)C1=O` gave an IC50 (PBLUC_HILL_SLOPE 37.8, PBLUC_R_SQUARED 0.839, read-out: LUCIFERASE INFECTION ASSAY - IC50) of 0.0401 µM and an IC90 of 0.0425 µM.
Work on `COc1ccc(C(=O)Nc2nc3ccccc3[nH]2)cc1` yielded an IC50 (HEPG2TOX_HILL_SLOPE 4.46, HEPG2TOX_R_SQUARED 0.552, PBLUC_HILL_SLOPE 2.95, PBLUC_R_SQUARED 0.511, read-out: LUCIFERASE INFECTION ASSAY - IC50) of 7.58 µM and an IC90 greater than 10 µM.
With `Cc1ccc2nc(NC(=O)c3cccc(Cl)c3)c(C(=O)NC3CCCC3)n2c1` the IC50 (FFLUC_HILL_SLOPE 23.2, FFLUC_R_SQUARED 0.442, HEPG2TOX_HILL_SLOPE 1.26, HEPG2TOX_R_SQUARED 0.897, PBLUC_HILL_SLOPE 7.29, PBLUC_R_SQUARED 0.437, read-out: LUCIFERASE INFECTION ASSAY - IC50) was 1.09 µM and the IC90 was 1.47 µM.
With `CN1C/C(=C\c2ccccc2)C(=O)/C(=C/c2ccccc2)C1` the IC50 [1] was greater than 11.4 µM and the IC90 was greater than 11.4 µM.
With `O=C(Nc1cc(Cl)cc(Cl)c1)c1ccccc1O` the IC50 [1] was 3.79 µM and the IC90 was 4.44 µM.
In the case of `CN(C)c1cccc(-c2cnc3cnc(-c4ccncc4)cn23)c1`, the IC50 (PBLUC_HILL_SLOPE 2.07, PBLUC_R_SQUARED 0.374, read-out: LUCIFERASE INFECTION ASSAY - IC50) is reported as 6.53 µM and the IC90 is reported as greater than 10.5 µM.
With `O=C(OC(C(=O)N1CCOCC1)c1ccccc1)c1cccc(-n2cccc2)c1` (stereo not drawn) the IC50 [1] was greater than 2 µM and the IC90 was greater than 2 µM.
`COc1cc(OC)c(NC(=O)c2cc3ccccc3cc2OCC(=O)NCc2ccco2)cc1Cl` was tested, and the IC50 (PBLUC_HILL_SLOPE 22.1, PBLUC_R_SQUARED 0.617, read-out: LUCIFERASE INFECTION ASSAY - IC50) was 9.17 µM and the IC90 was greater than 10 µM.
In the case of `O=C1NC(=O)/C(=C/c2cccc(C#Cc3ccccc3)c2)S1`, the IC50 (PBLUC_HILL_SLOPE 1.96, PBLUC_R_SQUARED 0.068, read-out: LUCIFERASE INFECTION ASSAY - IC50) is reported as 6.6 µM and the IC90 is reported as greater than 10.8 µM.
`Oc1cccc2c(NC(S)=Nc3ccc(SC(F)F)cc3)cccc12` showed an IC50 (FFLUC_HILL_SLOPE 69.3, FFLUC_R_SQUARED 0.272, PBLUC_HILL_SLOPE 39, PBLUC_R_SQUARED 0.0559, read-out: LUCIFERASE INFECTION ASSAY - IC50) of 7.27 µM and an IC90 of 7.7 µM.
Compound `Cc1ccc(S(=O)(=O)c2nc(-c3ccccc3)oc2S(=O)(=O)CC(=O)NC(C)C)cc1` has an IC50 [1] greater than 10 µM and an IC90 greater than 10 µM.
With `Cc1ccccc1OCCOC(=O)Nc1ccccc1` the IC50 [1] was greater than 12.2 µM and the IC90 was greater than 12.2 µM.
Compound `O/N=C1\CC(c2ccccc2)Sc2ccccc21` (stereo not drawn) has an IC50 (PBLUC_HILL_SLOPE 0.783, PBLUC_R_SQUARED 0.658, read-out: LUCIFERASE INFECTION ASSAY - IC50) of 3.88 µM and an IC90 greater than 12.9 µM.
In the case of `C=C1S/C(=N\c2ccccc2OC)N(C(=O)c2c(-c3ccccc3Cl)noc2C)C12CCCCC2`, the IC50 (FFLUC_HILL_SLOPE 28.3, FFLUC_R_SQUARED 0.328, HEPG2TOX_HILL_SLOPE 0.898, HEPG2TOX_R_SQUARED 0.613, PBLUC_HILL_SLOPE 1.13, PBLUC_R_SQUARED 0.144, read-out: LUCIFERASE INFECTION ASSAY - IC50) is reported as 3.72 µM and the IC90 is reported as greater than 6.5 µM.
`CN(C)c1cc[n+](CC(=O)Nc2ccc(OC(F)F)cc2)cc1` showed an IC50 (HEPG2TOX_HILL_SLOPE 2.17, HEPG2TOX_R_SQUARED 0.89, read-out: LUCIFERASE INFECTION ASSAY - IC50) greater than 10 µM and an IC90 greater than 10 µM.
`CCOC(=O)c1nn(CC2CC2)c2c1CN(CC(C)Cc1ccc3c(c1)OCO3)CC2` (stereo not drawn) showed an IC50 [1] greater than 7.76 µM and an IC90 greater than 7.76 µM.
